Results as given in EP2662079A1 (Ordway Research Institute, Inc., priority 2012, dated 2013).
Where “and” joins values, the source holds several entries; their conditions need not be identical. Identical values can stand only once.

How the values were obtained:
GL261 cells [1] = assay: Sublethal damage repair (SLDR), split-dose x-rays; format: cell-based, murine
Method: SLDR was measured at 10% immediate survival level as determined from the acute single dose curve for both control and Tetrac-treated cells in both growth states (i.e. exponentially growing and plateau phase cells. Flasks were irradiated with one-half of the total dose and returned to the 37°C incubator. At increasing periods of time, flasks were removed, and given the second half of the immediate 10% survival dose. Survival was measured at 0, 0.5, 1.0, 1.5, 2.0, 3.0, 4.0, 6.0, 8.0, and 10.0 hours after the initial dose.
To investigate the effects of Tetrac on SLDR and PLDR, cells were chosen that had been given a one-hour treatment with Tetrac at two different times, i.e., at 70 and 270 hours post-seeding).

U87MG cells = assay: Neutral comet assay (DNA double-strand breaks); format: cell-based, human
Method: For the comet assay studies of induction and repair of DSBs in U87MG cells, cells were treated as described above. However, for the single dose induction ofDSBs doses ranged from 0-30 Gy, and for the study of the repair ofDSBs in irradiated cells, a large single dose of 60 Gy requiring approximately 1 h of irradiation time was given. Appropriate temperature controls (on ice) were run to insure that no decrement in survival was produced by the 1 h exposure to 0°C.
U87MG cells on plastic slides were exposed to 2 nM Tetrac for 1 h at 37°C. These slides were then placed on crushed ice and irradiated with doses from 0 to 75 Gy. Slides were immersed in lysing solution at 50°C for 2 hours. Slides were washed, and placed into a gel electrophoresis unit. Electrophoresis was carried out at 0.66 V/cm for 25 min. Cells were stained with ethidium bromide and image analysis was done using an epifluoresence microscope at a total magnification of 400 X. We also used an excitation filter of 515-535 nm and a barrier filter at 590 nm. The mean tail moment (TM) which is expressed in arbitrary units was then calculated. TM was calculated using a CCD camera and software. Approximately 350 comets were analyzed per condition.

MDA-MB-231 cells = assay: RNA microarray of MDA-MB-231 cells; format: cell-based, human
Method: Tetrac and nanoparticulate Tetrac. Tetrac was custom-synthesized by Peptido GMBH (Bembach, Germany). The proprietary Tetrac nanoparticle was custom-synthesized by covalently-bonding of the outer ring hydroxyl of Tetrac to PLGA via an intervening linker. […] Cell culture for definition of effects of Tetrac formulations on tumor cell proliferation. MDA-MB-231 cells were purchased from ATCC (Manassas, VA). Cells were maintained until use in DMEM that contained 10% FBS. The incubator conditions were 5% CO2/95% 02 and 37° C. The action of unmodified Tetrac and nanoparticulate on MDA-MB-231 cells was determined in a perfusion bellows cell culture system we have recently described for quantitating pharmaceutical agent pharmacodynamics in vitro. (See Lin et al., J Steroid Biochem Mol Biol 113: 182-188 (2009)). In brief, the cell culture system is a disposable bioreactor capable of high density cell culture for studies of anti-cancer drugs. Bellows-induced alternate flow of culture medium and air through porous matrices where cells are grown provides a relatively low shear, high aeration, foam-free culture environment. Medium level is raised and lowered to submerge and expose matrices to create a dynamic interface between air and media on the cell surface. Anchorage-dependent cells are grown on plastic flakes in the system. The flakes facilitate harvesting of whole cells for analysis. In the present studies, 5 x 10^7 cells were seeded in each perfusion flask and incubated at 37 C overnight. Flakes thereafter were sampled at regular intervals (Figure 44), subjected to trypsinization and the harvested cells counted. When Tetrac or nanoparticulate Tetrac were initially added to the system, flasks contained 20-50 x 10^6 cells. Cell cultures were re-fed with 1% FBS-containing medium. Studies were carried out in duplicate flasks and replicated once. Cell culture for harvesting of RNA. MDA-MB-231 cells were maintained in DMEM that was supplemented with 10% FBS in a 5% CO2/95% 02 air incubator at 37°C. For two days prior to exposure to Tetrac and nanoparticulate Tetrac, cells were maintained in 0.25% FBS that was stripped of estrogen and thyroid hormone. (See Lin et al., Biochemistry 42: 7571-7579 (2003)). RNA microarray and analysis. Microarray analysis experiments were conducted as described previously. (See Glinsky et al., J Clin Invest 115: 1503-1521 (2005); Glinsky et al., J Clin Invest 113: 913-923 (2004); Glinsky et al., Clin Cancer Res 10: 2272-2283 (2004); and Glinsky et al., Mol Carcinog 37: 209-221 (2003)). In brief, the array hybridization and processing, retrieval of data and analysis utilized standard sets of Affymetrix (Santa Clara, CA) equipment, software and protocols in the microarray core facility of Ordway Research Institute. […] Sample purity and integrity were verified with an Agilent BioAnalyzer (Santa Clara, CA). Expression analysis of 54,675 transcripts for each sample was by Affymetrix HG-U133A Plus 2.0 arrays. MAS5.0 software was used for data retrieval and analysis and concordant changes of gene expression in response to unmodified Tetrac and nanoparticulate Tetrac were defined by two-tailed t test at a threshold p value < 0.01.
Expression of ~54,000 transcripts was analyzed in control and drug-treated cultures, using Affymetrix Human Genome U133 plus 2.0 microarrays. Subsequent analysis was focused on genes affected by treatment at p < 0.01. There was 93% concordance between Tetrac and Tetrac NP in terms of genes affected; notable disparities included downregulation of epidermal growth factor receptor (EGFR) by Tetrac NP and no affect of unmodified Tetrac on this gene.

GL261 cells [2] = assay: Cell multiplicity after Tetrac exposure; format: cell-based, murine; details: after one hour exposure to Tetrac
Method: Cell multiplicity (CM) was determined from Giemsa stained slides by counting the number of cells per microcolony under 20 X magnification. At least 400 microcolonies were counted.
The length of time that Tetrac biologically affected GL261 cells was also determined. To do this, the multiplicity relationship defined above was utilized. Tetrac was added to cells one hour prior to the determination of the multiplicity. After the exposure of exponentially growing GL261 cells to Tetrac, the Tetrac containing medium was removed from GL261 cells, which contained an unknown residual and fresh medium (without Tetrac) was added. As a function of time (i.e., 0, 1, 2, 3, 4, 6, 8, and 10 hours, and 1-6 days), the cells, containing an unknown residual amount of remaining Tetrac, were then processed for determination of the multiplicity index (i.e. the number of cells per microcolony).

[3] = single dose of 30 Gy, Tetrac-treated cells
[4] = gene expression, listed as unmodified Tetrac

O=C(O)Cc1cc(I)c(Oc2cc(I)c(O)c(I)c2)c(I)c1 [Tetrac, 3,3',5,5'-tetraiodothyroacetic acid]
repair of x-ray damage (GL261 cells [1]; Tetrac 2uM, 6 to 8 hours post-irradiation (Figure 58)): no repair of x-ray damage | recovery ratio (GL261 cells [1]; exponential Tetrac treated cells, 2 hours after the first dose): 1.8 | factor by which Tetrac reduced SLDR (GL261 cells [1]; exponential cells): 1.8 | survival relative to survival seen at 0 hours (GL261 cells [1]; plateau phase cells with Tetrac, 3 hours after the initial dose): approximately 36% | decrease in cellular repair (factor) (GL261 cells [1]; plateau phase cells, three hours post-irradiation): ~3 | increase of the slow repair part of the curve (U87MG cells): approximately 2.2 fold | sensitization factor (steady-state DSB levels) (U87MG cells; 0 Gy): 2.2 | mean tail moment (U87MG cells; 0 radiation dose, 1 h Tetrac at 37°C, arbitrary units): 12.4 and 13.1 | slope of DSB repair versus time (U87MG cells; after 30 Gy of x-rays (control -4.36)): -1.20 | relative percentage of fast repair (U87MG cells; [3]): 16% | relative percentage of slow repair (U87MG cells; [3]): 84% | inhibition of the repair of DNA double strand breaks (U87MG cells; vs control U87MG cells): 72.5% | expression of epidermal growth factor receptor (EGFR) (MDA-MB-231 cells; 10^-7 M, 24 h): no affect | Change: CBY1 (MDA-MB-231 cells; gene expression): significantly increased | Change: CDKN2C (Cyclin-dependent kinase inhibitor) (MDA-MB-231 cells; gene expression): ↑ | Change: Cyclins (Cell cycle regulators) (MDA-MB-231 cells; gene expression): ↓ | Change: THBS1 (MDA-MB-231 cells; gene expression): strongly induced | Change: BCL2L14 (MDA-MB-231 cells; [4]): not a significant stimulatory action | Change: CASP2 (MDA-MB-231 cells; [4]): not a significant stimulatory action | Change: MCL1 (MDA-MB-231 cells; [4]): did not significantly affect | Change: XIAP (MDA-MB-231 cells; [4]): also acted on XIAP | time for a 50% return of the cell multiplicity factor towards control level (GL261 cells [2]): approximately 2.5 days | time post Tetrac treatment at which decrease in the CM factor was recorded at 50% (GL261 cells [2]): 60 h
